Reference: ChEMBL document CHEMBL5154820 (Eur J Med Chem, 2022)
Active and inactive are the calls of the source. The rule behind the calls is not given here.

Legend:
SiHa = assay: Antiproliferation activity against human SiHa cells assessed as reduction in cell growth measured after 48 to 72 hrs by CCK-8 assay; assay type: functional, cell-based
[1] = Antiproliferation activity against human MS751 cells assessed as reduction in cell growth measured after 48 to 72 hrs by CCK-8 assay; assay type: functional, cell-based
HeLa = assay: Antiproliferation activity against human HeLa cells assessed as reduction in cell growth measured after 48 to 72 hrs by CCK-8 assay; assay type: functional, cell-based
Tubulin = Tubulin (Sus scrofa, UniProt P02554+P02550); assay: Inhibition of pig brain tubulin polymerization by spectrophotometeric analysis; design: species or system Sus scrofa domesticus
[2] = target: T1, Tubulin beta (Homo sapiens) (UniProt P68371+Q9H4B7+Q13509+P04350+Q3ZCM7+P07437+Q13885+Q9BVA1+Q9BUF5+A6NNZ2); assay: Binding affinity to beta-tubulin colchicine binding site in human HeLa cells assessed as decrease of adduct formation by measuring gray value measured at 25 uM incubated for 2 hrs followed by addition of EBI measured after 1.5 hrs by EBI competition based Western blotting analysis; assay type: cell-based; conditions: time 3.5 hrs
[3] = target: T1, Tubulin beta (Homo sapiens); assay: Binding affinity to beta-tubulin colchicine binding site in human HeLa cells assessed as decrease of adduct formation by measuring gray value measured at 5 uM incubated for 2 hrs followed by addition of EBI measured after 1.5 hrs by EBI competition based Western blotting analysis; assay type: cell-based; conditions: time 3.5 hrs
A549 = assay: Antiproliferation activity against human A549 cells assessed as reduction in cell growth; assay type: functional, cell-based
Bos taurus = species on record: Bos taurus; assay: Inhibition of calf brain tubulin polymerization upto 50 uM measured after 40 mins by spectrophotometric analysis
HCT-116 = assay: Antiproliferation activity against human HCT-116 cells assessed as reduction in cell growth; assay type: functional, cell-based
[4] = Retention time of the compound; assay type: physicochemical

| IC50 (HeLa) | IC50 (Tubulin) | SMILES | IC50 (SiHa) | IC50 [1] | other results |
| --- | --- | --- | --- | --- | --- |
| 790 nM | – | COc1cc(-c2ncncc2-c2ccc(C(=O)N(C)C)cc2)cc(OC)c1OC | 20200 nM | 1370 nM | – |
| 250 nM | 3700 nM | CCOc1ccc(-c2cncnc2-c2cc(OC)c(OC)c(OC)c2)cc1 | 640 nM | 220 nM | – |
| 470 nM | 63700 nM | COc1ccc(-c2cncnc2-c2cc(OC)c(OC)c(OC)c2)nc1 | 1750 nM | 830 nM | – |
| 8360 nM | – | COc1cc(-c2ncncc2-c2ccc(OC(C)C)cc2)cc(OC)c1OC | 9970 nM | 33900 nM | – |
| 790 nM | > 100000 nM | CCOc1ccc(-c2cncnc2-c2cc(OC)c(OC)c(OC)c2)cc1C(F)(F)F | 20000 nM | 25000 nM | – |
| 10200 nM | – | COc1cc(-c2ncncc2-c2ccc(OCC(F)(F)F)cc2)cc(OC)c1OC | 33300 nM | 9000 nM | – |
| 650 nM | > 100000 nM | CCOC(=O)Oc1cc(-c2cncnc2-c2cc(OC)c(OC)c(OC)c2)ccc1OC | 1890 nM | 780 nM | – |
| – | – | CC[C@]1(O)C[C@H]2CN(CCc3c([nH]c4ccccc34)[C@@](C(=O)OC)(c3cc4c(cc3OC)N(C=O)[C@H]3[C@@](O)(C(=O)OC)[C@H](OC(C)=O)[C@]5(CC)C=CCN6CC[C@]43[C@@H]65)C2)C1 | – | – | Activity [2]: 0.98; Activity [3]: 1.12 |
| 370 nM | – | CCSc1ccc(-c2cncnc2-c2cc(OC)c(OC)c(OC)c2)cc1 | 1030 nM | 1560 nM | – |
| 280 nM | 13400 nM | COc1ccc(-c2cncnc2-c2cc(OC)c(OC)c(OC)c2)cc1O | 2750 nM | 830 nM | – |
| 500 nM | – | COc1cc(-c2ncncc2-c2ccc(Br)cc2)cc(OC)c1OC | 2960 nM | 2840 nM | – |
| 1160 nM | – | COc1cc(-c2ncncc2-c2ccc3c(c2)OCO3)cc(OC)c1OC | 5400 nM | 1360 nM | – |
| 770 nM | 62800 nM | COc1cc(-c2ncncc2-c2ccc3cc[nH]c3c2)cc(OC)c1OC | 2180 nM | 1090 nM | – |
| 220 nM | 9300 nM | COc1cc(-c2ncncc2-c2ccc(SC)cc2)cc(OC)c1OC | 560 nM | 130 nM | – |
| 500 nM | 29900 nM | COc1ccc(-c2cncnc2-c2cc(OC)c(OC)c(OC)c2)cc1F | 3340 nM | 1100 nM | – |
| > 100000 nM | – | COc1cc(-c2ncncc2-c2ccc(C(N)=O)cc2)cc(OC)c1OC | > 100000 nM | > 100000 nM | – |
| 470 nM | 17100 nM | CCOc1ccc(-c2cncnc2-c2cc(OC)c(OC)c(OC)c2)cc1F | 800 nM | 750 nM | – |
| – | – | COc1cc(-c2ncncc2-c2cccc3ccccc23)cc(OC)c1OC | – | – | IC50 (A549): 2500 nM; Activity (Bos taurus): Active; IC50 (HCT-116): 2500 nM |
| 4000 nM | – | COc1cc(-c2ncncc2-c2ccc(B(O)O)cc2)cc(OC)c1OC | 17500 nM | 32400 nM | – |
| 1140 nM | 71200 nM | COc1ccc(-c2cncnc2-c2cc(OC)c(OC)c(OC)c2)cc1 | 2850 nM | 1300 nM | – |
| 320 nM | 53100 nM | COc1ccc(-c2cncnc2-c2cc(OC)c(OC)c(OC)c2)cc1Cl | 1330 nM | 790 nM | Retention_time [4]: 2.23 min |
| 1470 nM | – | CNC(=O)c1ccc(-c2cncnc2-c2cc(OC)c(OC)c(OC)c2)cc1 | 10900 nM | 13200 nM | – |

| SMILES | IC50 (HeLa) | IC50 (Tubulin) | IC50 (SiHa) | IC50 [1] | other results |
| --- | --- | --- | --- | --- | --- |
| COc1cc2c(c(OC)c1OC)-c1ccc(OC)c(=O)cc1[C@@H](NC(C)=O)CC2 [COLCHICINE] | 42 nM | – | 45 nM | 35 nM | – |
